Data from PubChem BioAssay AID1117361 (Southern Research Institute, 2015).

target: Protein Tat (Human immunodeficiency virus type 1 group M subtype B (isolate HXB2)) (UniProt P04608); experiment: HIV-1 Tat–TAR interaction blockers – biochemical, fluorescence polarization, FAM-labeled TAR RNA, counter-screen for Vif-APOBEC3G degradation inhibitor project, dose response (AID 1117361); conditions: Tat-TAR RNA binding
Sequence (P04608 whole entry, looked up): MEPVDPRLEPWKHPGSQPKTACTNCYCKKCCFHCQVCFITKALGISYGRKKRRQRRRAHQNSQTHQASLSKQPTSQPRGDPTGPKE

SMILES | IC50
CCCCNC(=O)c1ccc2nc(-c3ccco3)c(-c3ccco3)nc2c1 | 6.84 µM
CNC[C@H](O)c1ccc(O)c(O)c1 | 11.8 µM
Cc1cc(C(=O)CSc2nc3ccccc3c(=O)[nH]2)c(C)n1C | 49.2 µM
CC(=C/c1ccco1)/C=N/NC(=O)Cc1cccn1C | 10.7 µM
CCOc1cc(N2CCOCC2)c(OCC)cc1NC(=O)CSc1ncn[nH]1 | 35.7 µM
O=C1NC(=O)N(Cc2ccc(F)cc2)C(=O)/C1=C\C=C\c1ccco1 | 42.3 µM
COC/C=C/C1=CC2=CC(=O)C(C)(OC(=O)c3cnc4ccccc4n3)C(=O)C2=CN1c1ccccc1 (centres undefined) | 22.3 µM
CCOc1ccc(NCC2CCOC(C)(C)C2)cc1 (centres undefined) | 64.8 µM
O=C(Nc1ccccc1)C1=C(O)CC(c2ccco2)CC1=Nc1ccccc1 (centres undefined) | 70.3 µM
COC(=O)C1=C(C)NC(=O)/C1=C\c1cc(C)n(-c2ccccc2C)c1C | 28.7 µM
COc1cc(OC)c2c(c1O)OC(c1ccccc1)CC2=O (centres undefined) | 65.4 µM
CCCCN1C(=O)/C(=C/C=C/c2ccco2)C(=O)NC1=S | 21.7 µM
CCCC(=Nc1ccc(N)cc1)C1=C(O)C(C(=O)OC)C(C)(C)CC1=O (centres undefined) | 6.88 µM
CNc1ccc(Br)cc(C(=O)/C=C/c2ccc(Cl)cc2Cl)c1=O | 9.56 µM
CN(CCC#N)C(=O)COC(=O)c1c2c(nc3ccccc13)/C(=C\c1ccco1)CC2 | 79.8 µM
Cc1cc2ccccc2n1CCNC(=O)C1CCCCC1 | 23.5 µM
O=C(O)Cc1ccc(N=Nc2c(O)c(C(=O)O)cc3ccccc23)cc1 | 27.5 µM
N#Cc1c(-c2ccco2)c2c([nH]c1=S)CCCC2 | 8.34 µM
CN(C)c1ccc(N2C(=O)CC(Nc3ccc(N4CCOCC4)cc3)C2=O)cc1 (centres undefined) | 9.99 µM
O=C1S/C(=C\C=C\c2ccco2)C(=O)N1c1ccc(O)cc1 | 2 µM
O=C1NC(c2ccc(Br)cc2)=N/C1=C/c1ccco1 | 6.78 µM
COc1cc(C(=O)NCc2nnc(SCC(=O)Nc3nc4ccc(C)cc4s3)o2)cc(OC)c1OC | 35.9 µM
CCOc1cccc(=O)c2c(C)n(Cc3ccco3)c(C)c12 | 2.95 µM

SMILES | IC50
NCCc1c[nH]c2ccccc12 | 11.8 µM
C=CCN1C(=O)/C(=C\c2ccco2)C(C(=O)OC)=C1C | 45.9 µM
O=C(COC(=O)c1ccccc1)Nc1ncc([N+](=O)[O-])s1 | 20.5 µM
CC(=O)c1ccc(NC(=O)c2ccc3nc(-c4ccco4)c(-c4ccco4)nc3c2)cc1 | 7.73 µM
O=C1/C(=C/C=C/c2ccco2)SC(=S)N1NS(=O)(=O)c1ccccc1 | 2.48 µM
CC[n+]1ccc(C)c2cc(P(=O)(c3ccccc3)c3ccccc3)ccc21 | 72.9 µM
COCCCNC(=O)/C(C#N)=C/c1ccc(OCC(=O)O)c(OC)c1 | 34.4 µM
CC1C/C(=C/c2ccco2)C(=O)/C(=C/c2ccco2)C1 (centres undefined) | 3.92 µM
Cc1cccc(NC2=Nc3ccccc3N3C2=Nc2c(c(C)nn2-c2ccccc2)C3c2ccc(O)c(O)c2)c1 (centres undefined) | 43 µM
Cc1cc(C(=O)CSc2nnnn2C)c(C)n1CCc1ccc(Cl)cc1 | 84.6 µM
C=CC1=C(C(=O)O)N2C(=O)C(NC(=O)Cc3ccccc3)C2SC1 (centres undefined) | 64.2 µM
Cc1ccn2cc(-c3nonc3C)cc2c1 | 21.4 µM
COc1ccc(NC(=O)/C(C#N)=C\c2ccc(Br)o2)cc1 | 60.8 µM
O=C(N/N=C/c1ccc(O)c(O)c1O)/C(=C/c1ccc([N+](=O)[O-])cc1)NC(=O)c1ccccc1 | 7.17 µM
Cc1ccc(Cl)cc1N1CCN(C(=O)COc2ccc3c(c2)CCC3)CC1 | 57.2 µM
Cc1ccc(/C=C/C(=O)Nc2ccc([N+](=O)[O-])c(NC(=O)/C=C/c3ccc(C)o3)c2)o1 | 7.2 µM
CCN1CCN(C2=NC(=O)/C(=C/c3ccc(C)o3)S2)CC1 | 1.47 µM
Cc1ccccc1NC(=O)c1c(C)[nH]c(=S)c(C#N)c1-c1ccco1 | 8.91 µM
COC(=O)C1=C(N)OC2=C(C(=O)CCC2)C1c1cccs1 (centres undefined) | 52.2 µM
CCOc1ccc2[nH]c(=O)c(CN(Cc3nnnn3Cc3ccco3)C3CCCCC3)cc2c1 | 24.9 µM
COc1ccc(O)c(N)c1 | 5.5 µM
CCOC(=O)c1ccc2c(c1)C1C=CCC1C(C(=O)O)N2 (centres undefined) | 11 µM
O=C(O)C1Nc2c(Cl)cc(Cl)cc2C2C=CCC12 (centres undefined) | 94.4 µM

SMILES | IC50
C=CCOC(=O)C1=C(C)NC(SCC(=O)Nc2ccccc2)=C(C#N)C1c1ccco1 (centres undefined) | 57.5 µM
O=c1cc(-c2ccc(O)cc2)oc2c(O)c(O)c(O)c(O)c12 | 74.9 µM
Cc1ccc(-n2c(-c3cc(-c4ccco4)[nH]n3)n[nH]c2=S)c(Br)c1 | 6.09 µM
O=C(Nc1ccc(Cl)cc1)Nc1ccc(N2CCC(C(F)(F)F)CC2)nc1 | 32.5 µM
CC1CCN(Cc2c(O)ccc3c2O/C(=C\c2ccco2)C3=O)CC1 | 4.79 µM
O=C1CC(SC(=S)C2CCCC2=O)C(=O)N1 (centres undefined) | 3.21 µM
O=C1C=C(N2CC2)c2ccccc2C1=O | 80.9 µM
O=c1c2cc(N3CCOCC3)ccc2[nH]c(=S)n1Cc1ccco1 | 38.7 µM
O=C(NCCCO)c1ccc2nc(-c3ccco3)c(-c3ccco3)nc2c1 | 3.58 µM
O=C1CCC/C(=N\NC(=O)c2ccc(COc3cccc4cccnc34)cc2)C1 | 82.3 µM
COc1cccc(-n2c(Cc3cc(=O)[nH]c(=O)[nH]3)nnc2SCC(=O)NC2CCCC2)c1 | 10.1 µM
CNc1ccc(Br)cc(C(=O)/C=C/c2cc(OC)ccc2OC)c1=O | 9.75 µM
O=C(N/N=C/C=C/c1ccco1)c1ccncc1 | 10.2 µM
O=C(COC(=O)c1ccc(NS(=O)(=O)c2cccs2)cc1)NCc1ccco1 | 16.4 µM
Cc1ccc(C)n1-c1sccc1C(=O)O | 0.909 µM
CC1CCCCC1NC(=O)COC(=O)c1c2c(nc3ccccc13)/C(=C/c1ccco1)CC2 (centres undefined) | 7.58 µM
c1coc(-c2nc3ccccc3nc2-c2ccco2)c1 | 6.44 µM
COC(=O)C1=C(C)NC(=O)/C1=C\c1ccco1 | 39.7 µM
Cc1cc(O)c(-c2cc(O)c(C)cc2O)cc1O | 89.7 µM
O=[N+]([O-])c1cc2ccccc2c(O)c1O | 56.8 µM
O=[N+]([O-])c1c(NCCO)cc(Sc2nc3ccccc3s2)c2nonc12 | 90.1 µM
Cc1oc(-c2ccc(Cl)cc2)cc1-c1nn2c(-c3ccoc3C)nnc2s1 | 2.87 µM
CN1C(=O)/C(=C/c2cccn2-c2ccc3ccccc3c2)C(=O)NC1=S | 44.5 µM

SMILES | IC50
COc1ccc(N=C2NC(=O)/C(=C\C=C\c3ccco3)S2)cc1 | 6.32 µM
C[n+]1cccc2cccc([O-])c21 | 13.7 µM
COCCn1nnnc1C(c1cc2cc(OC)c(OC)cc2[nH]c1=O)N1CCN(c2ccc(O)cc2)CC1 (centres undefined) | 94.3 µM
CN(C(=O)COC(=O)c1cc(-c2ccco2)nc2ccccc12)C1CCS(=O)(=O)C1 (centres undefined) | 6.36 µM
CC1Cc2ccccc2N1Cc1cc(=O)n2ccsc2n1 (centres undefined) | 10 µM
CC1(OC(=O)C2CCCC2)C(=O)C=C2C=C(c3ccsc3)OC=C2C1=O (centres undefined) | 45.4 µM
CCn1cc(CNC(=O)c2ccc(Cl)c([N+](=O)[O-])c2)c(C)n1 | 43 µM
O=C(O)c1ccc2c(c1)C1C=CCC1C(c1ccncc1)N2 (centres undefined) | 6.37 µM
Nc1ccc2c(O)cc(S(=O)(=O)O)cc2c1 | 48 µM
O=C(OC1CCCCC1)c1ccc2c(c1)C1C=CCC1C(C(=O)O)N2 (centres undefined) | 2.26 µM
COc1cc(NC(=O)CS(=O)(=O)c2ccc(C)cc2)cc(OC)c1OC | 1.42 µM
CN(CC(=O)Nc1cccc(F)c1)C(=O)c1cccc(-n2cccc2)c1 | 40.9 µM
Cc1c(C(=O)O)cccc1-n1c(C)cc(/C=N/Nc2ccc([N+](=O)[O-])cn2)c1C | 64 µM
O=C1NN(c2ccc(Cl)cc2)C(=O)/C1=C\c1ccc(-c2cccc(C(=O)O)c2)o1 | 23.4 µM
O=C1C2C3C=CC(C3)C2C(=O)N1CNc1ccc(O)cc1 (centres undefined) | 25.7 µM
O=C1CCCC(O)=C1N=Nc1ccc(C(=O)O)cc1 | 6.47 µM
O=C1NC(c2cccc(Br)c2)=N/C1=C\c1ccco1 | 9.2 µM
Cc1cc(NC(=O)CCNS(=O)(=O)c2cc(Br)cnc2N)ccc1Br | 93.7 µM
Oc1ccc2c(c1)C1CCCC1(N1CCOCC1)O2 (centres undefined) | 23.1 µM
O=C1/C(=C\c2ccco2)NC(=S)N1c1ccccc1 | 16.1 µM
CN(C)C(=O)c1nc2ccc(Cl)cn2c1CN1CCCC(OCc2ccccc2)C1 (centres undefined) | 44.6 µM
CN1CCc2cccc3c2[C@H]1Cc1ccc(O)c(O)c1-3 | 19.1 µM
O=C(O)CCc1ccc(-c2cccs2)n1-c1ccc(C(=O)O)cc1 | 45.6 µM

SMILES | IC50
Cc1cc(O)ccc1-c1cnc2ccccc2n1 | 80.8 µM
Fc1ccccc1/C=C1\CCCC2=C1Nc1ncnn1C2c1ccccc1F (centres undefined) | 23.7 µM
COc1ccc(NC(=O)CN(C)C(=O)c2cc(-c3ccco3)nc3ccccc23)cc1 | 46.4 µM
O=C1CC(c2ccco2)CC(O)=C1C=Nc1cc(Cl)ccc1Cl (centres undefined) | 7.33 µM
O=S(=O)(Nc1nccs1)c1ccc(Nc2nnc(-c3ccccc3)c3ccccc23)cc1 | 47.7 µM
O=C(Nc1ccc2nc(-c3ccco3)c(-c3ccco3)nc2c1)NC1CC1 | 1.83 µM
CC1(C)N([O-])c2cc([N+](=O)[O-])ccc2[N+]1=O | 61.3 µM
Cc1ccc(S(=O)(=O)Cn2nnnc2C(CC(C)C)N2CCN(C)CC2)cc1 (centres undefined) | 22.6 µM
O=C(O)C[C@@H]1C(=O)O[C@@H]2C(COC(=O)c3cc(O)c(O)c(O)c3)O[C@@H](OC(=O)c3cc(O)c(O)c(O)c3)[C@@H](OC(=O)c3cc(O)c(O)c4c3[C@H]1[C@H](O)C(=O)O4)[C@H]2OC(=O)c1cc(O)c(O)c(O)c1 (some centres undefined) | 0.556 µM
O=C(O)CC(C(=O)O)N1C(=O)/C(=C/C=C/c2ccco2)SC1=S (centres undefined) | 1.33 µM
O=C(O)CSc1c2c(nc3cc(C(=O)N4CCOCC4)ccc13)CCCC2 | 12.2 µM
O=C1/C(=C/c2ccco2)SC(=S)N1C1CCS(=O)(=O)C1 (centres undefined) | 5.05 µM
Cc1cccc(NC(=S)NC(=O)/C=C/c2ccco2)c1 | 20.2 µM
O=C(CCN1C(=O)/C(=C/c2cccs2)SC1=S)NC1=NCCS1 | 46 µM
O=[N+]([O-])c1ccc(Sc2nc3ccccc3o2)c([N+](=O)[O-])c1 | 16.4 µM
CCOc1ccc(N(CC(=O)NC(C)(C)C)S(=O)(=O)c2c(C)noc2C)cc1 | 5.37 µM
CC(=O)Nc1cccc(Oc2ncnc3scc(-c4ccccc4)c23)c1 | 31 µM
O=C(O)c1cc2cccc(S(=O)(=O)N3CCOCC3)c2cc1O | 80.3 µM
CCOc1cc(N2CCOCC2)c(OCC)cc1NC(C)C(=O)N1CCN(CC)CC1 (centres undefined) | 78.8 µM
CCOC(=O)c1c(C)oc2c1c(C=NCc1ccccn1)c(O)c1ccccc12 | 4.15 µM
COc1ccccc1NCCC(=O)OCC(=O)NCc1ccco1 | 58 µM
Cc1cc(C(=O)Nc2sc3c(c2C#N)CCCCC3)cs1 | 23.6 µM
